Results from PubChem BioAssay (NCI).
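Cultured in 96-well plates, cells were exposed to test compound for 48 hours across five concentrations. TGI denotes the concentration required for complete inhibition of growth.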

Experiments:
Test in all cases: growth of human tumour cells (NCI), 48 h
OVCAR-4 ovarian = system: OVCAR-4 ovarian
SK-MEL-28 melanoma = system: SK-MEL-28 melanoma
CCRF-CEM leukemia = system: CCRF-CEM leukemia
MDA-MB-231 breast = system: MDA-MB-231 breast
NCI-H460 lung = system: NCI-H460 lung
RPMI-8226 leukemia = system: RPMI-8226 leukemia
HOP-92 NSCLC = system: HOP-92 NSCLC
ACHN renal = system: ACHN renal
SN12C renal = system: SN12C renal
HOP-62 NSCLC = system: HOP-62 NSCLC
SK-MEL-5 melanoma = system: SK-MEL-5 melanoma
NCI-H226 lung = system: NCI-H226 lung
NCI-H23 lung = system: NCI-H23 lung
MCF7 breast = system: MCF7 breast
SF-539 CNS = system: SF-539 CNS
MOLT-4 leukemia = system: MOLT-4 leukemia
HCT-116 colon = system: HCT-116 colon
OVCAR-5 ovarian = system: OVCAR-5 ovarian
BT-549 breast = system: BT-549 breast

| Structure (SMILES) | TGI (OVCAR-4 ovarian) [µM] | TGI (SK-MEL-28 melanoma) [µM] | TGI (CCRF-CEM leukemia) [µM] | TGI (MDA-MB-231 breast) [µM] | TGI (NCI-H460 lung) [µM] | TGI (RPMI-8226 leukemia) [µM] | TGI (HOP-92 NSCLC) [µM] | TGI (ACHN renal) [µM] | TGI (SN12C renal) [µM] | TGI (HOP-62 NSCLC) [µM] | TGI (SK-MEL-5 melanoma) [µM] | TGI (NCI-H226 lung) [µM] | TGI (NCI-H23 lung) [µM] | TGI (MCF7 breast) [µM] | TGI (SF-539 CNS) [µM] | TGI (MOLT-4 leukemia) [µM] | TGI (HCT-116 colon) [µM] | TGI (OVCAR-5 ovarian) [µM] | TGI (BT-549 breast) [µM] |
| --- | --- | --- | --- | --- | --- | --- | --- | --- | --- | --- | --- | --- | --- | --- | --- | --- | --- | --- | --- |
| O=[N+]1ON=C(c2ccccc2)C1=C1C(c2c(-c3ccccc3)no[n+]2[O-])=NON1[O-] | 9.79 | > 100 | > 100 | 95.9 | 68.7 | > 100 | 70.1 | 27.4 | > 100 | 55.1 | > 100 | 62.5 | 20.7 | 7.51 | 73.4 | > 100 | 16.2 | > 100 |  |
| CCOC(=O)C(=[N+]=[N-])C(=O)CN1C(=O)C2CC(C)=C(C)CC2C1O (centres undefined) |  | > 100 | > 100 |  | > 100 | > 100 |  | > 100 |  | > 100 | > 100 | > 100 | > 100 | > 100 | > 100 | > 100 | > 100 | > 100 | > 100 |
| COC(=O)N/N=C(\C(=O)Nc1cccc([N+](=O)[O-])c1)c1nc2ccc([N+](=O)[O-])cc2[nH]c1=O | > 100 | > 100 | > 100 |  | > 100 | > 100 | > 100 | > 100 | > 100 | 66.5 | > 100 | > 100 | > 100 |  | > 100 | > 100 | > 100 | > 100 |  |
| O=C(Nc1nc(C23CC4CC(CC(C4)C2)C3)cs1)c1cc2cc(Cl)ccc2oc1=O | > 100 | > 100 | > 100 | > 100 | > 100 | > 100 | > 100 | > 100 | > 100 | > 100 | > 100 | > 100 | > 100 | > 100 | > 100 | > 100 | > 100 | > 100 |  |
| CSc1ccc(OCC2OC2O)cc1 (centres undefined) | > 100 |  | > 100 |  | > 100 | 99.5 | > 100 | > 100 | > 100 | > 100 | 35.6 | > 100 | > 100 |  | > 100 | > 75.5 | 36.9 | > 100 |  |
| C/C(=N\NS(=O)(=O)c1ccc(C)cc1)c1cc2ccccc2n1C | > 100 |  | > 100 |  | > 100 | > 100 |  | > 100 | 57.7 | > 100 | > 100 |  | > 100 |  | > 100 | > 100 | > 100 |  |  |
| COc1ccc(N2C(=O)c3c(c4[nH]c5ccc(OC)cc5c4c4ccc(C(C)(C)C)cc34)C2=O)cc1 | > 100 | > 100 | > 100 |  | > 100 | > 100 | > 100 | > 100 | > 100 | > 100 | > 100 | > 100 | > 100 |  | > 100 | > 100 | > 100 | > 100 |  |
| O=C(O)CCNC(=O)c1cc(N(CCBr)CCBr)c([N+](=O)[O-])cc1[N+](=O)[O-] | > 100 | > 100 | > 100 | > 100 | > 100 | > 100 | > 100 | > 100 | > 100 | > 100 | > 100 | > 100 | > 100 | > 100 |  | > 100 | > 100 | > 100 | > 100 |
| CCOP(=O)(Nc1ccccc1P(=O)(OCC)OCC)OCC | > 100 | > 100 |  | > 100 | > 100 | > 100 | > 100 | > 100 |  | > 100 | > 100 |  | > 100 | > 100 |  | > 100 | > 100 | > 100 | > 100 |
| Cc1ccc(NCC(=O)N2CC(=O)Nc3ccccc32)cc1 | > 100 | > 100 | > 100 |  | > 100 | > 100 | > 100 | > 100 | > 100 | > 100 | > 100 | > 100 | > 100 |  | > 100 | > 100 | > 100 | > 100 |  |
| CC(Oc1ccc(OCC2CCCCC2)cc1)C(=O)NCCO (centres undefined) | > 100 | > 100 | > 100 |  | > 100 |  |  | > 100 | > 100 |  | > 100 | > 100 | > 100 |  | > 100 | > 100 | > 100 |  |  |
| Cc1[nH]n(C(=N)N)c(=O)c1CCO | > 100 | > 100 | > 100 | > 100 | > 100 |  | > 100 | > 100 | > 100 | > 100 | > 100 | > 100 | > 100 | > 100 | > 100 |  | > 100 | > 100 | > 100 |
| CCN1C(=O)/C(=C2\SC(c3ccccc3)(c3ccccc3)c3ccccc32)SC1=S | > 100 | > 100 | > 100 | > 100 | > 100 | > 100 | 82.4 | > 100 | > 100 | 68.1 | > 100 | > 100 | > 100 | > 100 | > 100 | > 100 | > 100 | > 100 | > 100 |
| COC(=O)C1=CC2CC1C(S(=O)(=O)c1ccccc1)C2S(=O)(=O)c1ccccc1 (centres undefined) | 39.9 | 30.4 | 8.44 |  | 51.5 | 29.3 | 29.4 |  | 28.8 | > 100 | 33.2 | 40.2 | 36.8 |  |  | 19.6 | 28.7 | 28.3 |  |
| COc1cc(CNC2=NCCC2)cc(OC)c1OC | > 100 | > 100 | > 100 |  | > 100 |  | > 100 | > 100 | > 100 | > 100 | > 100 | > 100 | > 100 | > 100 | > 100 | > 100 | > 100 | > 100 | > 100 |
| CSc1cc(Br)ccc1-n1c(C(=O)c2ccccc2)c(SC)n(-c2ccccc2)c1=O | > 100 | > 100 |  | > 100 | > 100 |  | > 100 | > 100 | > 100 | > 100 | > 100 | > 100 | > 100 | > 100 | > 100 | > 100 | > 100 | > 100 | > 100 |
| CN(C)c1ccc(-c2c(C#N)c(O)n(NS(=O)(=O)c3ccccc3)c(=O)c2C#N)cc1 | > 100 | > 100 | > 100 | > 100 | > 100 | > 100 | > 100 | > 100 | > 100 | > 100 | > 100 | > 100 |  | > 100 | > 100 | > 100 | > 100 | > 100 | > 100 |
| CC1(c2cccc(N)c2)C2C(=O)NC(=O)C1C(=O)NC2=O (centres undefined) | > 100 | > 100 | 62.5 |  | > 100 | 40.3 | 57.3 | 78.5 | 97.7 | > 100 | 37 | 83.8 | 48.5 |  | 81.7 | 47.6 |  | > 100 |  |
| CN(C)CCC(CCN(C)C)=NOC(=O)c1ccccc1 | > 100 | > 100 | > 100 |  | > 100 | > 100 |  | > 100 | > 100 | > 100 | > 100 |  | > 100 |  | > 100 | > 100 | > 100 |  |  |
| CC1=NN2C(c3ccc(C)cc3)=CSC2=NC(C)(C)C1 | > 100 | > 100 | > 100 |  | > 100 | > 100 | > 100 | > 100 | > 100 | > 100 | > 100 | > 100 | > 100 |  | > 100 | > 100 | > 100 | > 100 |  |
| CC(=O)OC1CC2(C)OC(Cc3ccccc32)O1 (centres undefined) |  | > 100 | > 100 |  | > 100 | > 100 | > 100 | > 100 | > 100 | > 100 |  | > 100 | > 100 |  | > 100 | > 100 | > 100 |  |  |
| c1cnc2c(c1)-n1cccc1C1(CCSC1)NN2 (centres undefined) | > 100 | > 100 | > 100 |  | > 100 | > 100 |  | > 100 | > 100 | > 100 | > 100 | > 100 | > 100 |  | > 100 | > 100 | > 100 | > 100 |  |
| Cc1ccc2c(c1)C1C(CO2)C(c2ccccc2)=NN1c1ccccc1 (centres undefined) |  | > 100 | > 100 |  | > 100 | > 100 | > 100 | > 100 |  | > 100 |  |  | > 100 |  | > 100 | > 100 | > 100 | > 100 |  |
| C[C@H](NC(=O)n1c2ccccc2c2ccccc21)C(=O)O |  | > 100 | > 100 |  | > 100 | > 100 | > 100 | > 100 | > 100 | > 100 | > 100 | > 100 | > 100 |  | > 100 | > 100 | > 100 | > 100 |  |
| CC(C)(C)CNC(=O)NCn1cc(-c2ccccc2)nn1 |  | > 100 | > 100 | > 100 | > 100 | > 100 | > 100 | > 100 | > 100 | > 100 | > 100 | > 100 | > 100 | > 100 | > 100 | > 100 | > 100 | > 100 | > 100 |
| Cc1cc2oc(-c3ccccc3)c(C)c(=O)c2c2c1OC(C)(C)S2 | > 100 | > 100 | > 100 |  | > 100 | > 100 | > 100 | > 100 | > 100 | > 100 | > 100 | > 100 | > 100 |  | > 100 | > 100 | > 100 | > 100 |  |
| N#Cc1cc([N+](=O)[O-])ccc1NC(=O)C(F)(F)F | > 100 | > 100 | > 100 |  | > 57.4 | > 66.9 | > 100 | > 100 | > 100 | > 100 | > 100 | > 100 | > 100 |  | > 100 | > 100 | > 61.5 | > 100 |  |
| CC1(C)OCC(C2OC(OC(=O)c3ccc([N+](=O)[O-])cc3)C3OC(C)(C)OC23)O1 (centres undefined) | > 100 | > 100 | > 100 | > 100 | > 100 | > 100 |  | > 100 | > 100 | > 100 | > 100 | > 100 | > 100 | > 100 | > 100 | > 100 | > 100 | > 100 | > 100 |
| Cc1cc(C)n2c(-c3ccccc3)c(C)cc2n1 | > 100 | > 100 | 43.6 |  | > 100 |  | > 100 | > 100 | > 100 | > 100 | > 100 | > 100 | > 100 |  | 73.4 |  | > 100 | > 100 |  |
